Measured values taken from patent publication US20220125841A1, “SODIUM F[…] A REVERSAL AGENT FOR AN ANTI-F[…] T CELLS AND FLUORESCEIN-PHOSPHOLIPID-ETHERS OR PROFLUORESCEIN-PHOSPHOLIPID-ETHERS” (Seattle Children's Hospital (dba Seattle Children'a …, priority 2019, published 2022).

How the values were obtained:
antiFL(Mut2) CAR T cells [1] = assay: In vivo intravenous use of NaFL to reverse cytokine toxicity by antiFL CAR T cells (Example 4); parameters: species or system mice
Method: Group A—control (5 mice): MDA-MB-231 tumor+antiFL(Mut2) CAR T cells.
Group B—FL-PLE without NaFL (5 mice): MDA-MB-231 tumor+antiFL(Mut2) CAR T cells+1 mg IV FL-PLE.
Group C—FL-PLE and NaFL (5 mice): MDA-MB-231 tumor+antiFL(Mut2) CAR T cells+1 mg IV FL-PLE+0.5 mg IV NaFL (as needed).
Group D—No tumor control (3 mice): antiFL(Mut2) CAR T cells+1 mg IV FL-PLE+0.5 mg IV NaFL (as needed).
Mice receiving FL-PLE (Groups B, C, and D) were administered FL-PLE IV first. AntiFL(Mut2) CAR T cells were subsequently administered in all mice 2 days following FL-PLE administration. […] Reduction of cytokine toxicity symptoms in mice of Groups C and D was observed within 15 minutes after administration of NaFL.

[2] = tested on: antiFL(FITC-E2) CAR T cells; assay: MDA-MB-231 xenograft mouse model: monitoring of cytokine release syndrome (CRS) and cytotoxicity; format: in vivo, mice
Text: FIG. 2B depicts levels of cytokine release syndrome (CRS) and cytotoxicity in an MDA-MB-231 adenocarcinoma tumor xenograft mouse model over time. FIG. 2B (lower panel) is an enlargement of an area of FIG. 2B (upper panel).
After an adenocarcinoma (MDA-MB-231) tumor was established in 2 groups of mice by subcutaneous injection (2 tumors per mouse in opposite flanks), the mice received an intravenous injection of antiFL(FITC-E2) CART cells on day 6. The control group (no drug) only received the antiFL(FITC-E2) CAR T cells and the tumor progressed as normal. […] The mice were monitored for cytokine release syndrome (CRS) and cytotoxicity on a scale ranging from 1 (healthy) to 5 (dead) (FIG. 2B). On day 17, the intratumoral dose of FL-PLE was increased to 2 μg per tumor. On day 18, the mice had levels of CRS/toxicity between 3 and 4 at which point they received a dose of 0.56 mg of NaFL via an intravenous injection. […] After this, all doses of FL-PLE were administered at 1 μg per tumor.

antiFL(Mut2) CAR T cells [3] = assay: Cytokine release assay with dose titration of NaFL (Example 3); format: cell-based
Method: FIG. 3D depicts a cytokine release assay measuring IL-2 using the effector cells generated in FIG. 3A-B, target cells tested in FIG. 3C, and a dose titration of NaFL (0, 1, 5, or 10 μM).
FIG. 3E depicts a cytokine release assay measuring IFN-γ using the effector cells generated in FIG. 3A-B, target cells tested in FIG. 3C, and a dose titration of NaFL (0, 1, 5, or 10 μM).
FIG. 3F depicts a cytokine release assay measuring TNF-α using the effector cells generated in FIG. 3A-B, target cells tested in FIG. 3C, and a dose titration of NaFL (0, 1, 5, or 10 μM).
CD4+ and CD8+ T cells from peripheral blood mononuclear cell preparations from two donors were lentivirally transduced to express long CAR cassettes comprising the antiFL(Mut2) CAR. The CAR cassette also contains the gene for a double mutant dihydrofolate reductase that allows for methotrexate positive selection to enrich for transduced CAR-expressing cells as well as the gene for the truncated CD19 (CD19t) surface marker that denotes CAR positivity. The selected cells are then subjected to a standard rapid expansion protocol using irradiated TM-LCL and PBMC feeder cells. After 14 days of expansion, cells were stained with anti-CD4, anti-CD8, and anti-CD19 antibodies as well as a live-dead stain to characterize surface phenotypes by flow cytometry. Flow plots for the CD4 and CD8 populations (FIG. 3A) and CAR positivity (FIG. 3B) are shown for mock and antiFL(Mut2) CAR T cells for both donors. These are the effector cells to be used in subsequent experiments.
A cytokine release assay was set up to examine how a dose titration of NaFL (0, 1, 5, and 10 μM) affects the activation of antiFL CAR T cells. The CAR T cells are the antiFL(Mut2) CAR T cells generated in this example. Target cells were incubated with FL-PLE/NaFL for 24 hours or overnight. The media supernatant from target cell cultures were harvested and constituent cytokines were measured (e.g. with a Bio-Plex Human Cytokine Screening Panel). The cytokines IL-2 (FIG. 3D), IFN-γ (FIG. 3E), and TNF-α (FIG. 3F) were measured.

[4] = tested on: antiFL(FITC-E2) CAR T cells; assay: Chromium release assay and cytokine release assay, antiFL(FITC-E2) CAR T cells with FL-PLE-loaded K562 target cells; format: cell-based; settings: 50 μM NaFL; K562 target cells with 5 μM FL-PLE
Method: FIG. 1B depicts a chromium release assay for effector T cells (CD8+ Mock or CD8+ antiFL(FITC-E2) CAR(Lg) T cells) mixed at various ratios with target cells (effector:target, E:T). The target cells are K562 control, K562 OKT3+, and K562 with 5 μM FL-PLE. One CD8+ antiFL(FITC-E2) population was exposed to 50 μM NaFL.
FIG. 1C depicts a cytokine release assay for helper cells (CD4+ Mock or CD4+ antiFL(FITC-E2) CAR(Lg) T cells) and effector T cells (CD8+ Mock or CD8+ antiFL(FITC-E2) CAR(Lg) T cells) mixed with target cells. The target cells are K562 control, K562 OKT3+, and K562 with 5 μM FL-PLE. One CD4+ and CD8+ antiFL(FITC-E2) population was exposed to 50 μM NaFL.
K562 (leukemia) cells were incubated with FL-PLE overnight. Cell integration of FL-PLE was analyzed by flow cytometry (FIG. 1A). There was a clear shift from the control K562 parental with the K562 parental incubated with 5 μM FL-PLE. This slight shift corresponded to a difference in the amount of FL exposed on the surface of the cell for CAR T cell recognition. These cells were used in a chromium release assay (FIG. 1B) and a cytokine release assay (FIG. 1C) to test whether the activation of CD8+ and CD4+ antiFL(FITC-E2) CAR T cells through FL-PLE integrated into K562 cells could be stopped in the presence of sodium fluorescein (NaFL). […]

## O=C([O-])c1ccccc1-c1c2ccc(=O)cc-2oc2cc([O-])ccc12.[Na+].[Na+] [NaFL, sodium fluorescein]
antiFL(Mut2) CAR T cells [1]; 0.5 mg IV NaFL, mice
  Tolerability in vivo: well tolerated
antiFL(Mut2) CAR T cells [1]; Groups C and D, 0.5 mg IV NaFL
  Time to reduction of cytokine toxicity symptoms after administration of NaFL: ≤ 15 min
antiFL(Mut2) CAR T cells [1]; Groups C and D, 2 days following first administration of NaFL, optionally with additional IV injections
  Cytokine levels after NaFL: comparable to baseline
[2]; 0.56 mg NaFL intravenous injection on day 18
  Time for cytotoxicity level to return to roughly baseline levels after NaFL: ≤ 12 h
[2]; 0.56 mg NaFL intravenous injection on day 18 at CRS/toxicity level 3 to 4
  Cytotoxicity level after NaFL: Within minutes, the cytotoxicity level had dropped
antiFL(Mut2) CAR T cells [3]; NaFL 0, 1, 5, and 10 μM, all three cytokines, both donor T cells
  Amount of activation of antiFL(Mut2) CAR T cells (IL-2, IFN-γ, TNF-α) versus amount of NaFL: decreased by the amount of NaFL present in the solution in a linear fashion
antiFL(Mut2) CAR T cells [3]; NaFL 0, 1, 5, or 10 μM, FIG. 3D
  Effect of NaFL on IL-2 release by antiFL(Mut2) CAR T cells: dose dependent
antiFL(Mut2) CAR T cells [3]; NaFL 0, 1, 5, or 10 μM, FIG. 3E
  Effect of NaFL on IFN-γ release by antiFL(Mut2) CAR T cells: dose dependent
antiFL(Mut2) CAR T cells [3]; NaFL 0, 1, 5, or 10 μM, FIG. 3F
  Effect of NaFL on TNF-α release by antiFL(Mut2) CAR T cells: dose dependent
[4]
  Effect of NaFL on recognition and activation of antiFL(FITC-E2) CAR T cells: able to stop the recognition and activation
